Source: US5464617A, “β-lactam compounds” (Hoffmann-La Roche Inc., priority 1994, dated 1995)
Values after ≈ are worked out from the molar mass of the structure shown. Where a name gives a salt, the structure may show the parent alone.

What was measured:
[1] = tested on: E. coli 1346; experiment: Antibacterial activity of the products per se, serial dilution method in liquid medium (Test E); format: cell-based; details: product per se; for MIC E. coli 1346 (E): test E; for MIC E. coli 1346: Table 3, liquid medium
Source text: The antibacterial activity of the products per se is illustrated on the basis of Table 3 hereinafter, the minimum inhibitory concentration […] in vitro against E. coli 1346 being determined using the serial dilution method in liquid medium: […]

[2] = tested on: Citrobacter freundii 1982; experiment: MIC in vitro of a 1:4 combination of ceftriaxone with a compound of formula I (Test D); format: cell-based; details: for MIC C. freundii 1982 (D): test D; for MIC C. freundii 1982: Table 2
Method: The minimum inhibitory concentration in vitro ([…]) of a 1:4 combination of ceftriaxone with a compound of formula I against Citrobacter freundii 1982 was measured and compiled in Table 2 hereinafter.

[3] = Table 4, 1:4 combination of ceftriaxone with the compound
[4] = 1:4 combination of ceftriaxone with the compound

MIC E. coli 1346 (E) ([1]; Table 4)	MIC C. freundii 1982 (D) [2, 3]	Compound	further results
4 µg/mL	2 µg/mL	CS(=O)(=O)NCC1=C(C(=O)O)N2C(=O)[C@@H]3[C@H]2[C@H](C1)CN3C(=O)C(F)(F)F [88(b), (1aS,3aR,6bR)-5-Methylsulphonylaminomethyl-1-oxo-2-trifluoroacetyl-1a,2,3,3a,4,6b-hexahydro-1H-2,6a-diazacyclobut[cd]indene-6-carboxylic acid sodium salt]	
8 µg/mL (≈ 19.6 µM)	8 µg/mL	O=C(Cn1nnnc1SCC1=C(C(=O)O)N2C(=O)[C@H]3NC[C@@H](O1)[C@H]32)NC1CC1 [Example 29(g), (1aS,3aR,6bS)-5-(1-(cyclopropyl-carbamoylmethyl)-1H-tetrazol-5-ylsulphanylmethyl)-1-oxo-1,1a,2,3,3a,6b-hexahydro-4-oxa-2,6a-diazacyclobut[cd]indene-6-carboxylic acid]	
2 µg/mL	0.5 µg/mL	Nc1nnc(SCC2=C(C(=O)O)N3C(=O)[C@H]4NC[C@@H](O2)[C@H]43)s1 [Example 29(c), (1aS,3aR,6bS)-S-(S-Amino-1,3,4-thiadiazol-2-yl-sulphanylmethyl)-1-oxo-4-oxa-1,1a,2,3,3a,6b-hexahydro-2,6a-diazacyclobut[cd]indene-6-carboxylic acid sodium salt]	
32 µg/mL	0.5 µg/mL	NC(=O)OCC1=C(C(=O)O)N2C(=O)[C@@H]3[C@H]2[C@H](C1)CN3C(=O)NCc1ccc(S(N)(=O)=O)cc1 [27(e), (1aS,3aR,6bR)-5-Carbamoyloxymethyl-2-(4-sulphamoylbenzylcarbamoyl)-1-oxo-1a,2,3,3a,4,6b-hexahydro-1H-2,6a-diazacyclobut[cd]indene-6-carboxylic acid sodium salt]	
0.5 µg/mL	2 µg/mL	CC(=O)N1C[C@H]2CC(COC(=O)NCc3ccc(O)cc3)=C(C(=O)O)N3C(=O)[C@@H]1[C@@H]23 [102(a), (1aS,3aR,6bR)-2-Acetyl-5-[(4-hydroxy-benzyl)-carbamoyloxymethyl]-1-oxo-1a,2,3,3a,4,6b-hexahydro-1H-2,6a-diazacyclobut[cd]indene-6-carboxylic acid sodium salt]	
4 µg/mL (≈ 12.3 µM)	0.5 µg/mL	NC(=O)CNC(=O)OCC1=C(C(=O)O)N2C(=O)[C@H]3NC[C@@H](C1)[C@H]32 [Example 95, (1aS,3aR,6bR)-5-Carbamoylmethylcarbamoyloxymethyl-1-oxo-1a,2,3,3a,4,6b-hexahydro-1H-2,6a-diazacyclobut[cd]indene-6-carboxylic acid trifluoroacemte]	
2 µg/mL	1 µg/mL	O=C([O-])C[n+]1ccc(SCC2=C(C(=O)O)N3C(=O)[C@@H]4[C@H]3[C@H](C2)CN4C(=O)C(F)(F)F)cc1 [Example 52(b), (1aS,3aR,6bR)-[4-(2-Trifluoroacetyl-6-carboxy-1-oxo-1a,2,3,3a,4,6b-hexahydro-1H-2,6a-diazacyclobut[cd]inden-5-ylmethylsulphanyl)-pyridin-1-ylio]-acetate sodium salt]	
0.5 µg/mL	1 µg/mL	CC(=O)N1C[C@H]2CC(CSc3nnc(C)s3)=C(C(=O)O)N3C(=O)[C@@H]1[C@@H]23 [65(a), (1aS,3aR,6bR)-2-Acetyl-5-(5-methyl-1,3,4-thiadiazol-2-ylsulphanylmethyl)-1-oxo-1a,2,3,3a,4,6b-hexahydro-1H-2,6a-diazacyclobut[cd]indene-6-carboxylic acid sodium salt]	
		CC(=O)N1C[C@H]2CC(CSc3nnnn3CC(N)=O)=C(C(=O)O)N3C(=O)[C@@H]1[C@@H]23 [70(a), (1aS,3aR,6bR)-2-Acetyl-5-(1-carbamoylmethyl-1H-tetrazol-5-ylsulphanylmethyl)-1-oxo-1a,2,3,3a,4,6b-hexahydro-1H-2,6a-diazacyclobut[cd]indene-6-carboxylic acid sodium salt]	MIC E. coli 1346 (E) ([1]; Table 5, particularly preferred products): 1 µg/mL; MIC C. freundii 1982 (D) ([2]; Table 5, particularly preferred products, 1:4 combination with ceftriaxone): 0.5 µg/mL
8 µg/mL	0.5 µg/mL	Cc1nnc(SCC2=C(C(=O)O)N3C(=O)[C@@H]4[C@H]3[C@@H](CN4C(=O)Nc3ccc(O)cc3)O2)s1 [Example 31(a), (1aS,3aR,6bS)-2-(4-Hydroxy-phenylcarbamoyl)-5-(5-methyl-1,3,4-thiadiazol-2-ylsulphanylmethyl)-1-oxo-1,1a,2,3,3a,6 b-hexahydro-4-oxa-2,6a-diazacyclobut[cd]indene-6-carboxylic acid sodium salt]	
		C[n+]1ccc(SCC2=C(C(=O)[O-])N3C(=O)[C@H]4NC[C@@H](C2)[C@H]43)cc1 [Example 20, (1aS,3aR,6bR)-5-(1-Methyl-pyridin-4-yliosulphanylmethyl)-1-oxo-1a,2,3,3a,4,6b-hexahydro-1H-2,6a-diazacyclobut[cd]indene-6-carboxylate trifluoroacetate]	MIC E. coli 1346 [1]: ≤ 0.5 µg/mL; MIC C. freundii 1982 [2, 4]: 1 µg/mL
2 µg/mL	2 µg/mL	CC(=O)N1C[C@H]2OC(CSc3nnc(N)s3)=C(C(=O)O)N3C(=O)[C@@H]1[C@@H]23 [Example 33, (1aS,3aR,6bS)-2-Acetyl-5-(5-amino-1,3,4-thiadiazol-2-ylsulphanylmethyl)-1-oxo-1,1a,2,3,3a,6b-hexahydro-4-oxa-2,6a-diazacyclobut[cd]indene-6-carboxylicacid sodium salt]	
> 32 µg/mL	0.25 µg/mL	O=C([O-])Cc1ccc[n+](CC2=C(C(=O)O)N3C(=O)[C@@H]4[C@H]3[C@H](C2)CN4C(=O)Nc2ccc(O)cc2)c1 [57(b), (1aS,3aR,6bR)-[1-[6-Carboxy-2-(4-hydroxy-phenylcarbamoyl)-1-oxo-1a,2,3,3a,4,6b-hexahydro-1H-2,6a-diazacyclobut[cd]inden-5-ylmethyl]-pyridin-3-ylio]-acetate]	
16 µg/mL	0.5 µg/mL	NC(=O)OCC1=C(C(=O)O)N2C(=O)[C@@H]3[C@H]2[C@H](C1)CN3C(=O)Cc1cccs1 [58(b), (1aS, 3aR,6bR)-5-Carbamoyloxymethyl-1-oxo-2-(thiophen-2-yl-acetyl)-1a,2,3,3a,4,6b-hexahydro-1H-2,6a-diazacyclobut[cd]indene-6-carboxylic acid sodium salt]	
16 µg/mL (≈ 47 µM)	0.5 µg/mL	Cn1nnnc1SCC1=C(C(=O)O)N2C(=O)[C@H]3NC[C@@H](S1)[C@H]32 [Example 40(a), (1aS,3aR,6bS)-5-(1-Methyl-1H-tetrazol-5-ylsulphanylmethyl)-1-oxo-4-thia-1,1a,2,3,3a,6b-hexahydro-2,6a-diazacyclobut[cd]indene-6-carboxylic acid]	
> 32 µg/mL	0.5 µg/mL	NC(=O)c1ccc(NC(=O)N2C[C@H]3OC(CSc4ccncc4)=C(C(=O)O)N4C(=O)[C@@H]2[C@@H]34)cc1 [31(e), (1aS,3aR,6bS)-2-(4-Carbamoyl-phenylcarbamoyl)-1-oxo-5-(pyridin-4-ylsulphanylmethyl)-1,1a,2,3,3a,6 b-hexahydro-4-oxa-2,6a-diazacyclobut[cd]indene-6-carboxylic acid sodium salt]	
		Cn1nnnc1SC1=C(C(=O)O)N2C(=O)[C@@H]3[C@H]2[C@H](C1)CN3C(=O)Nc1ccc(O)cc1 [Example 3(a), (1aS,3aR,6bR)-2-(4-Hydroxy-phenylcarbamoyl)-5-(1-methyl-1H-tetrazol-5-ylsulphanyl)-1-oxo-1a,2,3,3a,4,6b-hexahydro-1H-2,6a-diazacyclobut[cd]indene-6-carboxylic acid sodium salt]	MIC E. coli 1346 [1]: 128 µg/mL; MIC C. freundii 1982 [2, 4]: 0.25 µg/mL
≤ 0,25 μg/ml	0.25 µg/mL	NC(=O)OCC1=C(C(=O)O)N2C(=O)[C@@H]3[C@H]2[C@H](C1)CN3C(=O)NCc1cccs1 [27(f), (1aS,3aR,6bR)-5-Carbamoyloxymethyl-2-(thiophen-2-ylmethylcarbamoyl)-1-oxo-1a,2,3,3a,4,6b-hexahydro-1H-2,6a-diaza-cyclobut[cd]indene-6-carboxylic acid sodium salt]	
2 µg/mL	1 µg/mL	Cc1nnc(SCC2=C(C(=O)O)N3C(=O)[C@@H]4[C@H]3[C@H](C2)CN4C(=O)C(F)(F)F)s1 [65(b), (1aS,3aR,6bR)-5-(S-Methyl-1,3,4-thiadiazol-2-ylsulphanylmethyl)-1-oxo-2-trifluoroacetyl-1a,2,3,3a,4,6b-hexahydro-1H-2,6a-diazacyclobut[cd]indene-6-carboxylic acid sodium salt]	
32 µg/mL (≈ 89.5 µM)	1 µg/mL	Nc1nnc(SCC2=C(C(=O)O)N3C(=O)[C@H]4NC[C@@H](S2)[C@H]43)s1 [40(e), (1aS,3aR,6bS)-5-(5-Amino-1,3,4-thiadiazol-2-ylsulphanylmethyl)-1-oxo-4-thia-1,1a,2,3,3a,6b-hexahydro-2,6a-diazacyclobut[cd]indene-6-carboxylic acid]	
4 µg/mL (≈ 9.79 µM)	1 µg/mL	C=CCOC(=O)N1C[C@H]2OC(CSc3nnnn3C)=C(C(=O)O)N3C(=O)[C@@H]1[C@@H]23 [29(e) Byproduct]	
2 µg/mL	4 µg/mL	CC(=O)NCC1=C(C(=O)O)N2C(=O)[C@H]3NC[C@@H](C1)[C@H]32 [Example 84, (1aS,3aR, 6bR)-5-Acetylaminomethyl-1-oxo-l a,2,3,3a,4,6b-hexahydro-1H-2,6a-diazacyclobut[cd]indene-6-carboxylic acid trifluoroacetate]	
